Experimental data taken from the OligoGym collection.
These antisense oligonucleotides have a phosphorothioate backbone; sugars and methylation of C are not fully specified.

Biological target: SRA1
Details: ASO
Also: test concentration or dose not given here.

Sequence	remaining target (mRNA or protein) (fraction of control)
TGAAGGAGGTGGAGGCCC	≥ 1
CCGCGTTCCTTGTTGCCG	0.94
TCAGTCACATGGTCAACC	0.5
ATCCTCCATCAGTCGAGC	≥ 1
CATCCAAACACAGCTGCT	0.39
TCAGCACATCCTCCATCA	0.97
TTTCTCTTCATTGGCTGC	0.38
CCTGCTTCCTTGTGTGGC	0.66
TGACAGAAGGTCTCCAAG	0.81
TGAATGGAGAAGGGAGAA	0.75
CTGAAAACAGACTCCTCT	0.56
TCTGAAAACAGACTCCTC	0.99
TTTAACTCCTACCATCCA	0.89
GGCGTCGGCTGATGTCAT	0.42
TTGGCTGCCTCCTCTGAA	0.58
CTCCAGCCCACTGTTCCT	≥ 1
TGTGTGGCCACGGCAGTC	0.47
AGTCGAGCCTCAGACTCG	0.72
GAGGGTCCATACTAAGCG	0.53
GGCACCGGAAGGAGATGG	0.43
CATGGTCAACCATGAGGG	≥ 1
GTATCTCAAGGGTGATAC	0.6
TTCTCATGCTGAAATGAA	0.74
ATTTGAGGAGATGGTGTC	0.94

Sequence	remaining target (mRNA or protein) (fraction of control)
GCACCAGTAGAGCCATTC	0.3
CTCAGCTGTGGCTGCAGA	≥ 1
GTAGGCAGTAGTCTGACT	0.42
TGGTAAGCAGCGAGCGCC	0.74
TTTTAACTCCTACCATCC	≥ 1
GGGTCAGGCCCAGTGGGA	≥ 1
TTCCTGCAGCAGTGCCAG	0.45
CCCGGCTTCACGTACAGC	0.63
ATCTGCTGCGTCCCACCG	0.9
TTCTTTACAGGTATTGAC	≥ 1
GTGGATGTCATCTGCTGC	≥ 1
ATGCATGTTATGAGTAAC	≥ 1
CTTCATTGGCTGCCTCCT	0.2
CAGTGCCAGGCGTCGGCT	0.66
GCTTGAAAGCTCTTGCAC	≥ 1
TGTTCCTGCAGCAGTGCC	0.39
GCTGTGGCTGCAGATTTC	0.48
CTTTTCTGCAATTAATCT	0.61
ACATGGTCAACCATGAGG	0.54
GACACCAGAGGGACTAGC	0.73
AGGCCCAGGAGAAGTCTC	0.61
GACCACTCCCCACAGGTG	≥ 1
ACCATCCACTGACTGACC	≥ 1
CCTCTGAAAACAGACTCC	0.71

Sequence	remaining target (mRNA or protein) (fraction of control)
ACGCCAGAGGCAGGACCA	0.55
ATGAGGGAGCGGTGGATG	≥ 1
TGGCCACGGCAGTCTTCC	0.52
GGAGCCAAGTGACAGAAG	0.86
TTCCAGCCGCGTTCCTTG	≥ 1
GTCGGCTGATGTCATCAC	≥ 1
CTTCCCTCATAGGTGGGT	≥ 1
TGCTGCGTCCCACCGGTG	0.27
CGTCGGCTGATGTCATCA	0.61
AACTGCGGCGGGTCGTTC	≥ 1
CAATGCCTGTTCCAAAGG	0.91
TTTCTGCAATTAATCTTT	≥ 1
CAGGGAGCAGGGCAGTCG	0.35
CTGCTGCGTCCCACCGGT	0.21
AAAACAGACTCCTCTTTT	0.54
GGTGTCCGGTGAGTCTGG	0.5
CTCTGGCCCAGGTGGGAC	0.55
GCCAGGCGTCGGCTGATG	0.38
ACATACCTGCTTCCTTGT	≥ 1
CCTGCTGGAAGCCTGGTA	≥ 1
TGCTGGAAGCCTGGTATG	0.28
GTCTGCAGCCCGTATGAG	≥ 1
